Assay results reported in article PMC9554870, “Mesoporous Silica Nanoparticles Improve Oral Delivery of Antitubercular Bicyclic Nitroimidazoles” (ACS Biomaterials Science & Engineering, 2021).
In brackets after ≈: the same amount, converted by molar mass.

Tests used:
[1] = in vivo; conditions: male, CD-1, mouse, po, 20 mg/kg
[2] = Aqueous (saturated water) solubility by LC-UV; format: physicochemical; conditions: deionized water, 37 °C, encapsulated samples 10% w/w, n = 3
Description: The solubility of pretomanid and MCC7433 was measured before and after loading into nanoparticles by using Shimadzu LCMS-2020 (Kyoto, Japan) with a variable-wavelength UV–visible detector. Briefly, 0.5 mg of compound equivalent particles (or 5 mg of 10 wt % compound loaded nanoparticles) were dispersed in 750 μL of deionized water. Samples were incubated at 37 °C on a rotator for 24 and 48 h. Samples were then centrifuged at 12 000 rpm for 20 min. The supernatant was collected and centrifuged for another round at 12 000 rpm, 20 min before being analyzed by LC-UV. The mobile phase was 0.05% formic acid in water (solvent A) and 0.05% formic acid in acetonitrile (solvent B). LC-MS condition: column Zorbax Eclipse XDB-Phenyl, 3.0 × 100 mm, 3.5 μm; column temperature: 40 °C; flow: 1 mL/min; injection volume: 5 μL; gradient timetable: 0.00 min, 5% B; 0.50 min, 5% B; 3.00 min, 100% B; 4.2 min, 100% B; 5.00 min, 5% B.

[3] = system: M. tuberculosis H37Rv strain; assay: M. tuberculosis H37Rv minimum inhibition assay (resazurin reduction microplate assay); format: cell-based; conditions: Mycobacterium tuberculosis, lowest concentration with >90% inhibition of growth, free compounds predissolved in DMSO, nanoformulations dispersed in assay media, n = 4–6, read-out: MIC90%Inhib H37Rv
[4] = parameters: method as in PMID 30562958; conditions: vorinostat encapsulated within pristine and functionalized MCM-41; cited from earlier work

Compound	Tmax [1] [h]	half-life [1] [min]	solubility at 24 h [2] [µg/mL]	MIC90 [3] [µg/mL]	fold improvement of solubility compared to the free drug [4]
O=c1c2nc([N+](=O)[O-])cn2ccn1Cc1ccc(OC(F)(F)F)cc1 [MCC7433]	5.33	193	0.33 (≈ 0.932 µM)	0.25 to 0.5 (≈ 0.706 to 1.41 µM)	–
NNC(=O)c1ccncc1 [isoniazid]	–	–	–	0.04 (≈ 0.292 µM)	–
O=[N+]([O-])c1cn2c(n1)OC[C@@H](OCc1ccc(OC(F)(F)F)cc1)C2 [pretomanid]	–	–	15.5 (≈ 43.1 µM)	0.25 (≈ 0.696 µM)	–
O=C(CCCCCCC(=O)Nc1ccccc1)NO [vorinostat]	–	–	–	–	2.6–4.3 fold
